Test results taken from patent US7776913B2, “Carnitines for treating or preventing disorders caused by andropause” (Sigma-Tau Industrie Farmaceutiche Riunite S.p.A., priority 2002, dated 2010).

What was measured:
[1] = test system: Patients aged over 60 years with lowered blood concentrations of free and total testosterone; assay: Blood levels of LH; assay type: in vivo, human; settings: for LH: blood, mean ± SD
Excerpt: (§1) Reported here below is a clinical trial conducted in order to evaluate the activity of the combination according to the association in the treatment of the symptoms of male ageing.
(§2) Patients aged over 60 years with lowered blood concentrations of free and total testosterone (The Aging Male 4: 151-162, 2001) and complaining of symptoms figuring in the working definition of andropause proposed by the International Society for the Study of the Aging Male (I.S.S.A.M.) (The Aging Male 4: 151-162, 2001): reduced libido or sex drive and erectile function, depressed mood, difficulty concentrating, irritability and fatigue.
(§3) The above-mentioned compounds were presented to the patients in anonymous containers and administered for 6 months.
(§4) Medical history-taking and physical examinations were done for all patients. The following data were also collected prior to the start of treatment, after 1, 3 and 6 months of treatment: • 1. Total blood prostate-specific antigen (PSA) (ng/ml) as measured with the automatic test and monoclonal antibodies [Rigatti P., Scattoni V.: PSA: Antigene prostatico specifico. Edizioni Medico Scientifiche (EDIMES) Pavia, 1997]. • 2. Prostate volume (cm^3) as measured by suprapubic ultrasonography and calculated by means of the three diameters rule [Rigatti P. Scattoni V.: PSA: Antigene prostatico specifico. Edizioni Medico Scientifiche (EDIMES) Pavia, 1997]. • 3. Peak systolic volume (PSV) (cm/sec), end-diastolic velocity (EDV) (cm/sec), and Resistance Index (RI) (%) of the penile arteries (right and left cavernous e dorsal) as measured by means of penile basal and dynamic colour Doppler ultrasonography. RI was calculated as follows: (PSV-EDV/EDV)×100 (Urology 1997: 49: 822-830). • 4. Duration of full erections (in minutes) in the course of a recording period of three nights performed with Rigiscan. […] Free and total blood testosterone, LH and prolactin levels (The Aging Male 4: 151-162, 2001). • 6. Sexual function was checked by means of semistructured interviews and administration of the International Index of Erectile Function (IIEF-15) (Urology 1997: 49: 822-830). A score was calculated for each patient. • 7. Depression was quantified by means of the Hamilton Depression Scale questionnaire (DMS III) (Cancer 94: 2481-2489, 2002). A score was calculated for each patient. • 8. The subjective sensation of fatigue was calculated using the fatigue scale (Lison L.: Statistica applicata alla biologia sperimentale. Milano: Casa Editrice Ambrosiana, 1972). A score was calculated for each patient. • 9. Side effects.
(§5) Blood concentrations of PSA, free and total testosterone, prolactin LH, prostate volume, PSV, EDV, RI, full erection duration, IIEF-15, DMS III, and fatigue scale scores were compared between and within groups by means of factorial analysis of variance for randomised blocks (1 patient=1 block). Comparison of the mean values was done on the raw data with the exclusion of RI which used data subjected to angular transformation (sin^−1 √P/100) for the comparisons. Side effects were compared using the chi-square etst (Lison L.: Statistica applicata alla biologia sperimentale. Milano: Casa Editrice Ambrosiana, 1972).

[2] = test system: Patients aged over 60 years with lowered blood concentrations of free and total testosterone; assay: Total blood prostate-specific antigen (PSA) in the clinical trial; settings: for PSA: mean ± SD, 15 patients
Excerpt: as §1, §2, §3
as §4, with “effects. […]” for “effects.”

[3] = test system: Patients aged over 60 years with lowered blood concentrations of free and total testosterone; assay: Blood levels of total testosterone; assay type: in vivo, human; settings: for Total testosterone: blood, mean ± SD
Excerpt: as §1, §2, §3
as §4, with “effects. […]” for “effects.”

[4] = test system: Patients aged over 60 years with lowered blood concentrations of free and total testosterone; assay: International Index of Erectile Function questionnaire (IIEF-15); assay type: in vivo, human; settings: for IIEF-15 Erectile Function section score / IIEF-15 General Satisfaction section score (Table 18 title) / IIEF-15 Intercourse Satisfaction section score / IIEF-15 Orgasmic Function section score (Table 17 title) / IIEF-15 Sexual Desire section score: mean ± SD
Excerpt: as §1, §2, §3, §4, §5

[5] = test system: Patients aged over 60 years with lowered blood concentrations of free and total testosterone; assay: Fatigue scale; assay type: in vivo, human; settings: for Fatigue scale score: mean ± SD
Excerpt: as §1, §2, §3, §4, §5

[6] = test system: Patients aged over 60 years with lowered blood concentrations of free and total testosterone; assay: Clinical trial overall: andropause symptoms and pathological changes of the cervico-urethral district; assay type: in vivo, human; settings: unlike placebo
Excerpt: as §1
as §2, with “fatigue. […]” for “fatigue.”
Medical history-taking and physical examinations were done for all patients. […] Total blood prostate-specific antigen (PSA) (ng/ml) as measured with the automatic test and monoclonal antibodies [Rigatti P., Scattoni V.: PSA: Antigene prostatico specifico. […] Prostate volume (cm^3) as measured by suprapubic ultrasonography and calculated by means of the three diameters rule [Rigatti P. Scattoni V.: PSA: Antigene prostatico specifico. […] Peak systolic volume (PSV) (cm/sec), end-diastolic velocity (EDV) (cm/sec), and Resistance Index (RI) (%) of the penile arteries (right and left cavernous e dorsal) as measured by means of penile basal and dynamic colour Doppler ultrasonography. RI was calculated as follows: (PSV-EDV/EDV)×100 (Urology 1997: 49: 822-830). • 4. […]

[7] = test system: Patients aged over 60 years with lowered blood concentrations of free and total testosterone; assay: Blood levels of free testosterone; assay type: in vivo, human; settings: mean ± SD
Excerpt: as §1, §2, §3
(§6) Medical history-taking and physical examinations were done for all patients. The following data were also collected prior to the start of treatment, after 1, 3 and 6 months of treatment: • 1. Total blood prostate-specific antigen (PSA) (ng/ml) as measured with the automatic test and monoclonal antibodies [Rigatti P., Scattoni V.: PSA: Antigene prostatico specifico. Edizioni Medico Scientifiche (EDIMES) Pavia, 1997]. • 2. Prostate volume (cm^3) as measured by suprapubic ultrasonography and calculated by means of the three diameters rule [Rigatti P. Scattoni V.: PSA: Antigene prostatico specifico. […] Peak systolic volume (PSV) (cm/sec), end-diastolic velocity (EDV) (cm/sec), and Resistance Index (RI) (%) of the penile arteries (right and left cavernous e dorsal) as measured by means of penile basal and dynamic colour Doppler ultrasonography. RI was calculated as follows: (PSV-EDV/EDV)×100 (Urology 1997: 49: 822-830). • 4. […] A score was calculated for each patient. • 7. Depression was quantified by means of the Hamilton Depression Scale questionnaire (DMS III) (Cancer 94: 2481-2489, 2002). A score was calculated for each patient. • 8. The subjective sensation of fatigue was calculated using the fatigue scale (Lison L.: Statistica applicata alla biologia sperimentale. Milano: Casa Editrice Ambrosiana, 1972). A score was calculated for each patient. • 9. […]

[8] = test system: Patients aged over 60 years with lowered blood concentrations of free and total testosterone; assay: Blood prolactin levels; assay type: in vivo, human; design: unit not given here; settings: mean ± SD
Excerpt: as §1, §2, §3, §6

[9] = test system: Patients aged over 60 years with lowered blood concentrations of free and total testosterone; assay: Hamilton Depression Scale questionnaire (DMS III); assay type: in vivo, human; settings: for Hamilton Depression Scale questionnaire (DMS III) score: mean ± SD
Excerpt: as §1, §2, §3, §4, §5

[10] = test system: patients in the andropause; settings: 40×2 mg/day; cited from earlier work
[11] = test system: Patients aged over 60 years with lowered blood concentrations of free and total testosterone; assay: Prostate volume by suprapubic ultrasonography (three diameters rule); settings: mean ± SD
Excerpt: as §1, §2, §3, §6

[12] = test system: Patients aged over 60 years with lowered blood concentrations of free and total testosterone; assay: Duration of full nocturnal erections, three nights by Rigiscan; assay type: in vivo, human; settings: for Duration of full erections: three nights by Rigiscan, mean ± SD
Excerpt: as §1, §2, §3
as §4, with “effects. […]” for “effects.”

[13] = test system: Patients aged over 60 years with lowered blood concentrations of free and total testosterone; assay: Penile dynamic colour Doppler ultrasonography (PSV, EDV, RI of cavernous arteries); assay type: in vivo, human; settings: mean ± SD
Excerpt: as §1, §2, §3, §4, §5

Substance: testosterone undecaonate
- Change in blood levels of LH (in words) ([1]; at 3 months, F=229 P<0.01): statistically significant reduction
- Change in blood levels of LH (in words) ([1]; at 6 months): significant reduction
- LH ([1]; 3 months of therapy): 4.3 ± 0.6 IU/l
- LH ([1]; 6 months of therapy): 4.2 ± 1.2 IU/l
- LH ([1]; before therapy): 8.9 ± 0.6 IU/l
- PSA ([2]; 3 months of therapy): 2.01 ± 0.79 ng/mL
- PSA ([2]; 6 months of therapy): 2.02 ± 0.85 ng/mL
- PSA ([2]; before therapy): 2.02 ± 0.74 ng/mL
- Change in blood PSA levels (in words) ([2]; during and after therapy vs before): did not significantly increase
- Change in total serum testosterone (in words) ([3]; at either 3 or 6 months): no significant increases
- Total testosterone ([3]; 3 months of therapy): 15.5 ± 3.9 nmol/L
- Total testosterone ([3]; 6 months of therapy): 15.8 ± 2.6 nmol/L
- Total testosterone ([3]; before therapy): 14.5 ± 2.1 nmol/L
- IIEF-15 Erectile Function section score ([4]; 3 months of therapy): 16.7 ± 3.7
- IIEF-15 General Satisfaction section score (Table 18 title) ([4]; 3 months of therapy): 3.7 ± 1.1
- IIEF-15 Intercourse Satisfaction section score ([4]; 3 months of therapy): 4.8 ± 0.8
- IIEF-15 Orgasmic Function section score (Table 17 title) ([4]; 3 months of therapy): 3.9 ± 0.9
- IIEF-15 Sexual Desire section score ([4]; 3 months of therapy): 5.7 ± 0.8
- IIEF-15 Erectile Function section score ([4]; 6 months of therapy): 20.2 ± 5.3
- IIEF-15 General Satisfaction section score (Table 18 title) ([4]; 6 months of therapy): 4.4 ± 2.2
- IIEF-15 Intercourse Satisfaction section score ([4]; 6 months of therapy): 5.8 ± 1.9
- IIEF-15 Orgasmic Function section score (Table 17 title) ([4]; 6 months of therapy): 4.7 ± 1.8
- IIEF-15 Sexual Desire section score ([4]; 6 months of therapy): 7.1 ± 0.9
- Intercourse satisfaction (in words) ([4]; IIEF-15, Table 15): significantly increased
- Sexual desire (in words) ([4]; IIEF-15, Table 16): significantly increased
- Change in IIEF-15 Orgasmic Function scores (Table 18) ([4]; at 3 months, F=12.6, P<0.01): significantly increased
- IIEF-15 Erectile Function section score ([4]; before therapy): 13.8 ± 2.7
- IIEF-15 General Satisfaction section score (Table 18 title) ([4]; before therapy): 3.2 ± 0.6
- IIEF-15 Intercourse Satisfaction section score ([4]; before therapy): 4.1 ± 0.8
- IIEF-15 Orgasmic Function section score (Table 17 title) ([4]; before therapy): 3.2 ± 1.2
- IIEF-15 Sexual Desire section score ([4]; before therapy): 4.3 ± 1.0
- Change in IIEF-15 Erectile Function scores (in words) ([4]; both at 3 months and 6 months): significant increase
- Erectile activity (in words) ([4]; conclusion from Table 14): significantly increase
- Change in IIEF-15 General Satisfaction scores (text on Table 17) ([4]; time not stated): failed to induce any significant changes
- Fatigue scale score ([5]; 3 months of therapy): 1.1 ± 1.0
- Fatigue scale score ([5]; 6 months of therapy): 0.6 ± 0.4
- Change in fatigue scale score (in words) ([5]; at 3 months, F=33.6, P<0.01): statistically significant increase
- Change in fatigue scale score (in words) ([5]; at 6 months, F=5.9, P=n.s.): no significant increase
- Fatigue scale score ([5]; before therapy): 2.8 ± 1.3
- Activity in increasing the sensation of general well-being, comparison ([5]; conclusion from Table 20): significantly more active than placebo
- Effect on the symptoms of andropause [6]: capable of attenuating
- Free blood testosterone ([7]; 3 months of therapy): 19.5 ± 4.2 pg/mL
- Free blood testosterone ([7]; 6 months of therapy): 19.7 ± 4.0 pg/mL
- Free blood testosterone ([7]; before therapy): 4.4 ± 0.8 pg/mL
- Prolactin ([8]; 3 months of therapy): 7.4 ± 1.7
- Prolactin ([8]; 6 months of therapy): 7.3 ± 1.8
- Prolactin ([8]; before therapy): 7.7 ± 1.6
- Hamilton Depression Scale questionnaire (DMS III) score ([9]; 3 months of therapy): 5.8 ± 0.7
- Hamilton Depression Scale questionnaire (DMS III) score ([9]; 6 months of therapy): 5.1 ± 1.3
- Change in DMS III scores (in words) ([9]; at 3 months, F=4.07, P<0.05): significant decrease
- Significant decrease in DMS III scores (in words) ([9]; at 6 months, F=2.5, P=n.s.): but not at 6 months
- DMS III score compared between groups ([9]; at 6 months, comparison with placebo (and testosterone)): No significant difference
- Hamilton Depression Scale questionnaire (DMS III) score ([9]; before therapy): 6.6 ± 1.0
- Benefit in patients in the andropause [10]: fair amount of benefit
- Prostate volume ([11]; 3 months of therapy): 15.5 ± 3.0 cm^3
- Prostate volume ([11]; 6 months of therapy): 15.5 ± 2.6 cm^3
- Prostate volume ([11]; before therapy): 15.3 ± 2.8 cm^3
- Duration of full erections ([12]; 3 months of therapy): 112.7 ± 21.1 min
- Duration of full erections ([12]; 6 months of therapy): 119.6 ± 26.0 min
- Change in duration of full nocturnal erections (in words) ([12]; at 6 months): significant increase
- Duration of full erections ([12]; before therapy): 108.3 ± 18.7 min
- Left cavernous PSV ([13]; 3 months of therapy): 32.6 ± 4.2 cm/sec
- Left cavernous artery EDV ([13]; 3 months of therapy): 7.5 ± 3.3 cm/s
- Right cavernous artery EDV ([13]; 3 months of therapy): 7.9 ± 3.6 cm/s
- Right cavernous artery PSV ([13]; 3 months of therapy): 32.8 ± 4.2 cm/sec
- Left cavernous PSV ([13]; 6 months of therapy): 33.5 ± 3.5 cm/sec
- Left cavernous artery EDV ([13]; 6 months of therapy): 7.4 ± 3.3 cm/s
- Right cavernous artery EDV ([13]; 6 months of therapy): 7.9 ± 3.6 cm/s
- Right cavernous artery PSV ([13]; 6 months of therapy): 33.7 ± 3.7 cm/sec
- Left cavernous PSV ([13]; before therapy): 33.6 ± 3.7 cm/sec
- Left cavernous artery EDV ([13]; before therapy): 7.7 ± 3.5 cm/s
- Right cavernous artery EDV ([13]; before therapy): 7.8 ± 3.6 cm/s
- Right cavernous artery PSV ([13]; before therapy): 33.2 ± 3.9 cm/sec
